Broadly, the melting point is the temperature of the solid-liquid transition.

The molecule `CN(C)C1=CC(=O)c2ccccc2OC1` registered a melting point of 136 °C. On to `COc1ccccc1Sc1c(Cl)ncnc1Cl`, for which the melting point was determined as 103 °C. For the molecule `CCC(CC)OC(=O)c1ccc(C(=O)NS(=O)(=O)c2cccc(C(=O)NCCc3ccccc3)c2)cn1`, the melting point is 189 to 191 °C. With `COC(=O)c1cc(-c2ccncc2)sc1-c1ccncc1` the figure was 133 to 135 °C; with `CCCCCCNC(C)=C1C(=O)OC(=O)C(C(C)=O)=C1O`, 80 to 82 °C. In turn, `Cn1c(C(F)(F)F)cc(=O)n(-c2ccc3snc(OCC#N)c3c2)c1=O` yielded a melting point of 265 to 266 °C. To `Cc1cc(C)cc(C(=O)c2c(C(C)C)c(=O)[nH]c(=O)n2COCc2ccccc2)c1` belongs 68 to 70 °C; to `CCNC(=O)Nc1ccc(C(O)(C(F)(F)F)C(F)(F)F)cc1C(=O)OCC`, 144 to 146 °C. With `N#CCc1nn2c(-c3cccc(C(F)(F)F)c3)ccnc2c1C#N` the figure was 180 to 181 °C; with `ClCCOc1ccc(Cl)c2[nH]cc(Cl)c12`, 106 to 108 °C; with `CNC(=O)Oc1cccc(C2CCCN2CCN2C(=O)c3ccccc3C2=O)c1` (stereo not drawn), 96 to 98 °C.

Molecule `COc1ccc2c(c1)N(c1ccccc1F)C(=O)C2(C)NC(=O)OCc1ccccc1` (stereo not drawn) yielded a melting point of 149 to 151 °C. Turning to `CNC(=O)NS(=O)(=O)c1cc(CCNC(=O)/C=C/c2cccs2)ccc1OC`, the melting point is 120 °C. Regarding `CCC(Sc1cc2ccccc2n1C)(C(=O)OC)c1ccccc1` (stereo not drawn), the melting point fell in the range of 90 to 91 °C. `O=C1CCCN1c1cccc(Cc2n[nH]c(=O)c3ccccc23)c1` gave a melting point of 206 to 207 °C. In turn, `COc1cc2c(cc1Nc1ncc(Cl)c(N[C@H]3[C@@H](C(N)=O)[C@@H]4C=C[C@H]3C4)n1)CCN(CC(C)O)CC2` (stereo partly drawn) returned a melting point of 120 °C. To `O=C(O)Cc1cc(C(=O)c2ccc(Cl)cc2)ccc1O` belongs 250 °C; to `CC(=O)NC[C@H]1CN(c2cc(F)c(N3CCC(n4nnnc4CS(C)(=O)=O)CC3)c(F)c2)C(=O)O1`, 192 °C; to `Cn1ccnc1Sc1ccc(Nc2c(C#N)cnc3cc(-c4ccc(N5CCSCC5)nc4)ccc23)cc1Cl`, > 260 °C. Turning to `CCCc1nc2c(N)nc3ccccc3c2n1O`, the melting point fell in the range of 232 to 235 °C. Turning to `CSc1nc2ccnn2c(N)c1C#N`, the melting point is > 240 °C. Take `CC(C)CCCC(C)C1CCC2C3CC=C4CCCC(O)C4(C)C3CCC12C` (stereo not drawn): the melting point was 102 to 103 °C. The molecule `CCc1cccc(N=C(C)Nc2cccc(CC)c2)c1` yielded a melting point of 86 to 87 °C. In turn, `Cc1[nH]c2ccccc2c1CCC(=O)N1CCC(O)(Cc2ccccc2)CC1` displayed a melting point of 117 to 119 °C. Take `C#CCn1c(C(F)(F)F)c(CO)c2ccccc21`: the melting point was determined as 90 °C. `CC1CC2=C(CCC(Cc3ccc(O)cc3)C2)NC1=O` (stereo not drawn) returned a melting point of 230 to 235 °C. Molecule `Cc1ccc(S(=O)(=O)OCC2Cc3cccc(-c4cccc(F)c4)c3O2)cc1` (stereo not drawn) gave a melting point of 88 to 90 °C. To `CSC1=NC(c2cccc([N+](=O)[O-])c2)C2=C(COC2=O)N1` (stereo not drawn) belongs 204 to 206 °C; to `Cc1cc(-c2cc(O)c(SCc3ccccc3)c(=O)o2)cc(C)c1O[Si](C)(C)C(C)(C)C`, 137 to 139 °C; to `O=C(Nc1ccc(F)c(C(F)(F)F)c1)C1C(=O)C2CCC(C2)C1=O` (stereo not drawn), 97 to 100 °C. `Nc1ccnc(CCCCCN2C(=O)c3ccccc3C2=O)n1` had a melting point of 101 to 104 °C. Turning to `CC(C)(C)OC(=O)N1CCC(Oc2ccccc2C(C)(C)C)CC1`, the melting point lay in the range of 102 to 103 °C. With `Cn1nc(Nc2cc(Cl)n[nH]c2=O)cc1CN1CCC1` the figure was 140 to 141 °C; with `CCCCc1ccc(N)c(C(=O)C(=O)OC(=O)C(=O)c2cc(CCCC)ccc2N)c1`, 218 to 220 °C. To `O=C(NCC1(c2ccccc2)CCCCC1)Nc1ccc(I)cc1` belongs 184 to 190 °C; to `CCN(C(=O)c1ccccc1C(=O)c1ccc(F)cc1)C(C)(C)CNS(=O)(=O)c1ccc(C)cc1`, 154 to 156 °C. Molecule `O=S1(=O)NCN(C2CC2)c2c1ccc(F)c2Cl` showed a melting point of 141 to 143 °C. The molecule `CC(C)(C)OC(=O)NC[C@H]1CC[C@H](CCO)CC1` returned a melting point of 78 to 80 °C. In the case of `COC(=O)c1ncc(Nc2cc(C)[nH]n2)nc1Nc1ccc(Cl)cc1`, the melting point was 259 to 261 °C. In turn, `CN(c1cccc2cc(C3=NCC(CC(C)(C)O)S3)[nH]c12)S(=O)(=O)c1cccs1` (stereo not drawn) showed a melting point of 156 to 158 °C. Regarding `CC(C)OC(=O)NC1(c2ccccc2Cl)CCCCC1=O` (stereo not drawn), the melting point lay within 124 to 126 °C.

On to `COc1nc(Cl)cnc1NS(=O)(=O)c1cccnc1-c1ccc(CC(C)C)cc1`, for which the melting point fell in the range of 156 to 157 °C. To `CC(=O)N1c2ccccc2-c2c([N+](=O)[O-])cnn2C1c1ccccc1` (stereo not drawn) belongs 156 to 157 °C; to `CN1CCN(c2c(F)cc3c(=O)c(C(=O)O)cn(C4CSC4)c3c2F)CC1`, 204 to 206 °C. On to `CC(C)(C)c1nc(C=O)cc(N)c1F`, for which the melting point lay in the range of 129 to 130 °C.

Consider `COC(=O)NC(=NS(=O)(=O)NC(C)C)OC(C)C`, for which the melting point lay within 62 to 64 °C. In turn, `COc1ccc([C@H](CC(=O)O)N2CCN(CCCc3ccc4c(n3)NCCC4)C2=O)cn1` had a melting point of 122 °C. With `N#CC(C#N)(CC=C(Cl)Cl)Cc1ccc(OC(F)(F)F)cc1` the figure was 96.5 °C; with `CCOC(=O)C1=C(COCCCc2nc3ccccc3n2C)NC(C)=C(C(=O)NC(C)(C)C)C1c1ccccc1Cl` (stereo not drawn), 202 °C; with `COc1cc(Br)c(-n2c(=O)[nH]c3c(-c4ccccc4C(F)(F)F)nc(C)nc32)c(OC)c1`, 255 to 256 °C. In the case of `CCc1[nH]n(C2CCCC2)c2nc(Cc3ccccn3)nc(=O)c1-2`, the melting point is 120 to 122 °C. With `CCCCC(=O)c1cc2oc(C(=O)O)cc2c(C)c1C`, the melting point fell in the range of 188 to 189 °C. Turning to `CCNC(=O)c1ccccc1Nc1nc(Nc2cc3c(cc2OC)CC(=O)NCC3)ncc1Cl`, the melting point was > 250 °C. To `CC(C)(C)OC(=O)COc1ccc(-c2c(Cl)c(CN3C(=O)CCC3=O)nc3sc4c(c23)CCS(=O)(=O)C4)cc1` belongs 204 to 205 °C; to `Nc1c2c(nc3ccccc13)CCCC2OCCBr` (stereo not drawn), 164 °C; to `CC(C)NC[C@H](O)COc1ccc(Cc2nc(Br)c[nH]2)cc1`, 125 to 127 °C. With `CN1CCN(c2ccc([N+](=O)[O-])cc2)S1(=O)=O`, the melting point is 155 to 163 °C. `CC(C)n1cc(-c2nc(C(N)=O)c(N)nc2-c2ccccc2F)ccc1=O` displayed a melting point of 252 °C.

Regarding `CNC(=S)N1CC(c2ccccc2)C(c2ccc(Cl)cc2)=N1` (stereo not drawn), the melting point lay within 181 to 183 °C. In the case of `ClCCOc1cccc2nc[nH]c12`, the melting point was in the range of 153 to 154 °C. To `O=S(=O)(c1ccc(F)cc1)N1CCC(Nc2nc(OCC(F)(F)F)nc(-c3ccc(F)cc3)n2)CC1` belongs 183 to 185 °C. As for `COc1ccc(-c2ccncc2)cc1-c1cccc([N+](=O)[O-])c1`, the melting point is 145 to 150 °C.

`CCN(CC)C(=O)c1c(-c2ccccc2)ccc2cc(-c3ccc(OC)cc3)ccc12`: the melting point lay within 147 to 148 °C. Consider `COc1cc(C(=O)N[C@@H](CCC(=O)O)C(=O)O)ccc1NCCCc1c(N)nc(N)[nH]c1=O`, for which the melting point lay in the range of 165 to 184 °C. The molecule `C=Cc1c(C(=O)OC)cccc1[N+](=O)[O-]` returned a melting point of 44 to 45 °C. Molecule `CCCCn1c(=O)c2cn(S(=O)(=O)c3ccc(C(F)(F)F)cc3)nc2n(CCCC)c1=O` came in with a melting point of 151 to 153 °C. `CC(=O)NC(CC(C)C)C(=O)N1CC1C#N` (racemic) registered a melting point of 112 to 116 °C. To `CC(C)(C)c1ccc(CSc2ccc3c(c2)OCC(=O)N3)cc1` belongs 134 to 136 °C; to `CNC(=O)C(=NOC)c1ccccc1COc1ncc(Br)cc1C`, 115 to 116 °C.

Consider `CC(C)OC(=O)c1cn(-c2cccc(Cl)c2)cn1`, for which the melting point came out at 109 °C. In turn, `O=C1Cc2cc(NC(=O)C(=O)N3CCC(Cc4ccc(F)cc4)CC3)ccc2N1` displayed a melting point of 152 to 154 °C. To `CCCCCCC(C)(C)c1ccc(C2=CCCC3(C2)OCCO3)c(O)c1` belongs 97 to 98 °C; to `CS(=O)(=O)c1ccc(-c2cnn(CC(F)(F)F)c(=O)c2Oc2ccc(C#N)cc2)cc1`, 179 to 181 °C; to `O=C(Nc1ccc(-c2ccc(C(=O)N3CCN4CCC3CC4)o2)cc1)Nc1cccc(F)c1`, 230 °C. Turning to `Cc1cccc2c1C=Cc1ccccc1C2(C)O` (stereo not drawn), the melting point was 107 to 109 °C.

Regarding `FC(F)(F)COc1nc(NCc2ccc(C(F)(F)F)cc2)nc(Nc2ccc3cc[nH]c3c2)n1`, the melting point was 119 to 121 °C. To `Cc1nc(N2CCN(Cc3ccccc3)C2=O)sc1C(=O)NCc1cc(F)cc(F)c1` belongs 208 to 209 °C; to `COC(=O)c1ccc(N2CCCC2=O)c(N)c1`, 136 to 138 °C. For the molecule `COc1ccc(C2=C(c3c4n(c5ccccc35)CCC(CN)C4)C(=O)NC2=O)cc1` (stereo not drawn), the melting point lay within 195 to 196 °C.

For `COC(=O)C(Cl)Cc1ccc2ccc(Oc3c(Cl)cc(C(F)(F)F)cc3Cl)cc2c1` (stereo not drawn), the melting point was 136 °C. `CCCCCCCCCCC(=O)OCCCCCC(=O)CC(=O)c1ccccc1` gave a melting point of 37 to 38 °C. As for `COCCOc1cc(NC(=O)OC(C)(C)C)c(N)cc1C#Cc1ccccc1`, the melting point lay within 105 to 107 °C. Turning to `Cc1c(C(=O)O)oc2cc(OCCNC[C@H](O)COc3ccccc3)ccc12`, the melting point was in the range of 110 to 111 °C. With `O=C(c1ccc(Cl)cc1)c1nccs1` the figure was 101 to 103 °C; with `CN1CCC(OC2c3cccc(Cc4ccccc4)c3CCn3cc(-c4ccccc4)nc32)CC1` (stereo not drawn), 66 °C; with `Cc1cc(OCc2oc(-c3ccc(C(F)(F)F)cc3)nc2C)ccc1/C=C/C(=O)O`, 155 to 165 °C. Molecule `CC(C)(OC(=O)c1ccccc1)c1nccc2ccccc12` showed a melting point of 116 to 119 °C. Regarding `Cc1ccc([N+](=O)[O-])c(C(N)=O)c1`, the melting point lay within 172 to 175 °C.

These data come from a melting point compilation (Tetko et al.; mined from patent text by program, amines drawn as free bases though some values may be those of a salt).
